≈ marks a conversion by molar mass, not a printed value. Where two headings read alike, the source gives them in different places.
Experiments:
[1] = system: Plasmodium falciparum chloroquine-resistant clone (W2); test: microbe, parasite or virus in culture; format: cell-based; details: for IC50: Plasmodium falciparum, W2, P. falciparum W2, anti-HRPII test, read-out: IC50 (dose inhibiting 50% of parasite growth), mean ± SD; for In vitro activity against P. falciparum, in words: P. falciparum W2
Plasmodium berghei NK65 = test: Antimalarial suppressive test in mice infected with P. berghei; details: for Activity in P. berghei-infected mice, in words: 50 mg/kg by oral route, Table IV experiment
[2] = BGM cells, 24 h, MTT, mean of 3-5 experiments
[3] = Table V experiment, chloroquine 15 mg/kg
[4] = Table VI, chloroquine 1.25 mg/kg
[5] = Table VI, chloroquine 2.5 mg/kg
[6] = chloroquine at subcurative doses, dose not given
[7] = P. falciparum W2, anti-HRPII test, mean of 3-5 experiments
[8] = Table IV, 50 mg/kg oral, daily for three days
[9] = Table IV, 50 mg/kg oral, daily for three days, vs untreated controls

## O=C1O[C@H]([C@@H](O)CO)C(O)=C1O [Ascorbic acid]
[1]; mean of 3-5 experiments
  IC50: ≥ 50 µg/mL

## CC1=C(/C=C/C(C)=C/C=C/C(C)=C/C=C/C=C(C)/C=C/C=C(C)/C=C/C2=C(C)CCCC2(C)C)C(C)(C)CCC1 [Beta carotene]
[1]
  Selectivity index (SI) MDL50 / IC50: ≥ 71.4
  In vitro activity against P. falciparum, in words: reduced the P. falciparum parasite growth
[1]; mean of 3-5 experiments
  IC50: 14 ± 3.1 µg/mL (≈ 26.1 µM)
BGM cell line; [2]
  MDL50 (minimum lethal dose for 50% of cells), mean ± SD: ≥ 1000 µg/mL

## CCN(CC)CCCC(C)Nc1ccnc2cc(Cl)ccc12 (stereo not drawn) [Chloroquine]
[1]; mean of 3-5 experiments
  IC50: 0.175 ± 0.02 µg/mL (≈ 0.547 µM)
Plasmodium berghei NK65; Table IV, chloroquine 20 mg/kg
  % Reduction of parasitaemia, 5th day: 100%
  % Reduction of parasitaemia, 7th day: 100%
  Survival (average ± SD): 24 ± 5
  mean parasitaemia ± SD, 5th day: 0.0 ± 0.0
  mean parasitaemia ± SD, 7th day: 0.0 ± 0.0
Plasmodium berghei NK65; [3]
  % Reduction of parasitaemia, 7th day: 65%
  Survival (average ± SD): 24 ± 5
  mean parasitaemia ± SD, 5th day: 0.0 ± 0.0
  mean parasitaemia ± SD, 7th day: 2.9 ± 1.1
Plasmodium berghei NK65; Table V experiment, chloroquine 15 mg/kg, sub-curative
  % Reduction of parasitaemia, 5th day: 100%
Plasmodium berghei NK65; [4]
  % Reduction of parasitaemia, 5th day: 93%
  % Reduction of parasitaemia, 7th day: 49%
  % Reduction of parasitaemia, 9th day: 56%
  Survival (average ± SD): 19 ± 4
  mean parasitaemia ± SD, 5th day: 0.1 ± 0.03%
  mean parasitaemia ± SD, 7th day: 7.6 ± 3.3%
  mean parasitaemia ± SD, 9th day: 5.1 ± 0.1%
Plasmodium berghei NK65; [5]
  % Reduction of parasitaemia, 5th day: 95%
  % Reduction of parasitaemia, 7th day: 79%
  % Reduction of parasitaemia, 9th day: 29%
  Survival (average ± SD): 20 ± 9
  mean parasitaemia ± SD, 5th day: 0.01 ± 0.1%
  mean parasitaemia ± SD, 7th day: 3.1 ± 5.3%
  mean parasitaemia ± SD, 9th day: 8.4 ± 4.5%
Plasmodium berghei NK65; Table VI, chloroquine 5 mg/kg
  % Reduction of parasitaemia, 5th day: 94%
  % Reduction of parasitaemia, 7th day: 69%
  % Reduction of parasitaemia, 9th day: 57%
  Survival (average ± SD): 24 ± 4
  mean parasitaemia ± SD, 5th day: 0.0 ± 0.1%
  mean parasitaemia ± SD, 7th day: 4.7 ± 4.0%
  mean parasitaemia ± SD, 9th day: 5.1 ± 3.1%
Plasmodium berghei NK65; [6]
  Reduction of parasitaemia, day 5: 95%
  Reduction of parasitaemia, day 7: 79%

## O=c1c(-c2ccc(O)cc2)coc2cc(O)cc(O)c12 [Genistein]
[1]; BGM MDL50 / P. falciparum W2 IC50, toxicity considered at SI < 10
  Selectivity index (SI) MDL50 / IC50: Inactive
[1]
  In vitro activity against P. falciparum, in words: no activity
[1]; [7]
  IC50 (dose inhibiting 50% of parasite growth), mean ± SD: 28.8 ± 18.0 µg/mL
[1]; mean of 3-5 experiments
  IC50: > 25 µg/mL
BGM cell line; [2]
  MDL50 (minimum lethal dose for 50% of cells), mean ± SD: ≥ 1000 µg/mL

## COc1ccc([C@@H]2CC(=O)c3c(O)cc(O[C@@H]4O[C@H](CO[C@@H]5O[C@@H](C)[C@H](O)[C@@H](O)[C@H]5O)[C@@H](O)[C@H](O)[C@H]4O)cc3O2)cc1O [Hesperidin]
[1]
  In vitro activity against P. falciparum, in words: no activity
[1]; [7]
  IC50 (dose inhibiting 50% of parasite growth), mean ± SD: ≥ 50 µg/mL
[1]; P. falciparum W2, anti-HRPII test, mean of 3-5 experiments, listed as hesperidin
  IC50 (dose inhibiting 50% of parasite growth), mean ± SD: > 25 µg/mL
BGM cell line; [2]
  MDL50 (minimum lethal dose for 50% of cells), mean ± SD: ≥ 1000 µg/mL
Plasmodium berghei NK65
  Activity in P. berghei-infected mice, in words: slightly active
Plasmodium berghei NK65; [8]
  Survival (average ± SD): 20 ± 3
  mean parasitaemia ± SD, 5th day: 5.2 ± 0.8
  mean parasitaemia ± SD, 7th day: 9.1 ± 1.3
Plasmodium berghei NK65; [9]
  % Reduction of parasitaemia, 5th day: 47%
  % Reduction of parasitaemia, 7th day: 38%

## N[C@@H](CCC(=O)N[C@@H](CS)C(=O)NCC(=O)O)C(=O)O [L-Glutathione]
[1]
  IC50 (dose inhibiting 50% of parasite growth), mean ± SD: ≥ 50 µg/mL
BGM cell line
  MDL50 (minimum lethal dose for 50% of cells), mean ± SD: ≥ 1000 µg/mL

## CC(=O)N[C@@H](CS)C(=O)O [N-Acetylcysteine]
[1]; [7]
  IC50 (dose inhibiting 50% of parasite growth), mean ± SD: ≥ 50 µg/mL
BGM cell line
  MDL50 (minimum lethal dose for 50% of cells), mean ± SD: ≥ 1000 µg/mL

## O=c1c(O)c(-c2ccc(O)c(O)c2)oc2cc(O)cc(O)c12 [Quercetin]
[1]
  Selectivity index (SI) MDL50 / IC50: ≥ 76.9
  In vitro activity against P. falciparum, in words: most active flavonoid
[1]; mean of 3-5 experiments
  IC50: 13 ± 8.4 µg/mL (≈ 43 µM)
BGM cell line; [2]
  MDL50 (minimum lethal dose for 50% of cells), mean ± SD: ≥ 1000 µg/mL
Plasmodium berghei NK65
  Activity in P. berghei-infected mice, in words: best standard flavonoid
Plasmodium berghei NK65; [8]
  Survival (average ± SD): 22 ± 6
  mean parasitaemia ± SD, 5th day: 4.7 ± 4.0
  mean parasitaemia ± SD, 7th day: 8.3 ± 5.1
Plasmodium berghei NK65; [9]
  % Reduction of parasitaemia, 7th day: 44%
Plasmodium berghei NK65; Table IV, 50 mg/kg oral, daily for three days, vs untreated controls, 50 mg/kg
  % Reduction of parasitaemia, 5th day: 52%

## Cc1cc2nc3c(=O)[nH]c(=O)nc-3n(C[C@H](O)[C@H](O)[C@H](O)CO)c2cc1C [Riboflavin]
[1]
  In vitro activity against P. falciparum, in words: reduced the P. falciparum parasite growth
[1]; mean of 3-5 experiments
  IC50: 8.1 ± 4 µg/mL (≈ 21.5 µM)
BGM cell line; [2]
  MDL50 (minimum lethal dose for 50% of cells), mean ± SD: ≥ 1000 µg/mL

## [Se] [Selenium]
[1]; [7]
  IC50 (dose inhibiting 50% of parasite growth), mean ± SD: ≥ 50 µg/mL

## CC(=O)Oc1c(C)c(C)c2c(c1C)CCC(C)(CCC[C@H](C)CCC[C@H](C)CCCC(C)C)O2 (stereo partly drawn) [Tocopherol acetate]
[1]
  Selectivity index (SI) MDL50 / IC50: Inactive
[1]; mean of 3-5 experiments
  IC50: ≥ 50 µg/mL
BGM cell line; [2]
  MDL50 (minimum lethal dose for 50% of cells), mean ± SD: ≥ 1000 µg/mL

## [O]=[Zn] [Zinc oxide]
[1]
  In vitro activity against P. falciparum, in words: reduced the P. falciparum parasite growth
[1]; [7]
  IC50 (dose inhibiting 50% of parasite growth), mean ± SD: 2.7 ± 1.4 µg/mL
BGM cell line; [2]
  MDL50 (minimum lethal dose for 50% of cells), mean ± SD: ≥ 1000 µg/mL

— article PMC6282106, “Commercial drugs containing flavonoids are active in mice with malaria and in vitro against chloroquine-resistant Plasmodium falciparum” (Memórias do Instituto Oswaldo Cruz, 2018)
